Reference: patent publication US9469650B2, “Melampomagnolide B derivatives” (BOARD OF TRUSTEES OF THE UNIVERSITY OF ARKANSAS, priority 2013, dated 2016)
Where two headings read alike, the source gives them in different places.

Tests used:
AML 052308 cells [1] = test system: AML 052308 cells
Source text: (§1) Derivatives were screened for antileukemic activity against AML cells in culture (See FIGS. 1-7).

[2] = test system: AML 123009 primary isolate; test: antileukemic activity, cell viability
[3] = test system: AML 100510 primary isolate; test: antileukemic activity, cell viability
M9 ENL cells = test: antileukemic activity, cell viability; conditions: M9 ENL cell line
Procedure: Carbamate and carbonate derivatives of MMB were also screened for activity against M9 ENL cells at concentrations of 5, 10 and 20 μM (FIG. 10). […] Additionally, succinic amide derivatives of MMB were screened for activity against M9 ENL cells at concentrations of 5, 10 and 20 μM (FIG. 11).

AML 052308 cells [4] = test: cells; conditions: read-out: LC50
Source text: as §1

ACHN [5] = test: panel of 60 human tumor cell lines, growth inhibition (Renal Cancer); conditions: Homo sapiens
COLO 205 [6] = test: panel of 60 human tumor cell lines, growth inhibition (Colon Cancer); conditions: Homo sapiens, COLO 205
MOLT-4 [7] = test: panel of 60 human tumor cell lines, growth inhibition (Leukemia); conditions: Homo sapiens, MOLT-4
SW-620 [8] = test: panel of 60 human tumor cell lines, growth inhibition (Colon Cancer); conditions: Homo sapiens, SW-620, SW-620; 5-dose assay
RXF 393 [9] = test: panel of 60 human tumor cell lines, growth inhibition (Renal Cancer); conditions: Homo sapiens, RXF 393, RXF 393; 5-dose assay
M14 [10] = test: panel of 60 human tumor cell lines, growth inhibition (Melanoma); conditions: Homo sapiens, M14
TK-10 [11] = test: panel of 60 human tumor cell lines, growth inhibition (Renal Cancer); conditions: Homo sapiens, TK-10, TK-10; 5-dose assay
[12] = test system: panel of 60 human tumor cell lines; test: panel of 60 human tumor cell lines, whole panel or sub-panel (single concentration screen, summaries); assay type: cell-based; conditions: range over 6a and 6e
BT-549 [13] = test: panel of 60 human tumor cell lines, growth inhibition (Breast Cancer); conditions: Homo sapiens, BT-549
MCF7 [14] = test: as above; conditions: Homo sapiens, MCF7, MCF7; 5-dose assay
OVCAR-3 [15] = test: panel of 60 human tumor cell lines, growth inhibition (Ovarian Cancer); conditions: Homo sapiens, OVCAR-3
DU-145 [16] = test: panel of 60 human tumor cell lines, growth inhibition (Prostate Cancer); conditions: Homo sapiens, DU-145
HCT-116 [17] = test: panel of 60 human tumor cell lines, growth inhibition (Colon Cancer); conditions: Homo sapiens, HCT-116, HCT-116; 5-dose assay
SF-539 [18] = test: panel of 60 human tumor cell lines, growth inhibition (CNS Cancer); conditions: Homo sapiens, SF-539
RPMI-8226 [19] = test: panel of 60 human tumor cell lines, growth inhibition (Leukemia); conditions: Homo sapiens, RPMI-8226
CCRF-CEM [20] = test: as above; conditions: Homo sapiens
CAKI-1 [21] = test: panel of 60 human tumor cell lines, growth inhibition (Renal Cancer); conditions: Homo sapiens, CAKI-1
SR = test: panel of 60 human tumor cell lines, growth inhibition (Leukemia); conditions: Homo sapiens
MDA-MB-468 = test: panel of 60 human tumor cell lines, growth inhibition (Breast Cancer); conditions: Homo sapiens, MDA-MB-468
[22] = hydrolytic stability in human plasma; assay type: in vitro ADME
MALME-3M = test: panel of 60 human tumor cell lines, growth inhibition (Melanoma); conditions: Homo sapiens, Malme-3M
NCI-H522 [23] = test: panel of 60 human tumor cell lines, growth inhibition (Non-Small Cell Lung Cancer); conditions: Homo sapiens, NCI-H522
T-47D [24] = test: panel of 60 human tumor cell lines, growth inhibition (Breast Cancer); conditions: Homo sapiens, T47D
SNB-75 = test: panel of 60 human tumor cell lines, growth inhibition (CNS Cancer); conditions: Homo sapiens, SNB-75
LOX IMVI [25] = test: panel of 60 human tumor cell lines, growth inhibition (Melanoma); conditions: Homo sapiens, 5-dose assay
MDA-MB-435 [26] = test: as above; conditions: Homo sapiens, MDA-MB-435
K-562 [27] = test: panel of 60 human tumor cell lines, growth inhibition (Leukemia); conditions: Homo sapiens, K562
HL-60(TB) [28] = test: cells; conditions: Homo sapiens, HL-60
HOP-92 [29] = test: panel of 60 human tumor cell lines, growth inhibition (Non-Small Cell Lung Cancer); conditions: Homo sapiens, HOP-92, HOP-92; 5-dose assay
IGROV1 [30] = test: panel of 60 human tumor cell lines, growth inhibition (Ovarian Cancer); conditions: Homo sapiens, IGROV-1
HCT-116 [31] = conditions: values obtained from NCI database; cited from earlier work
BT-549 [32] = conditions: values obtained from NCI database; cited from earlier work
SF-539 [33] = conditions: values obtained from NCI database; cited from earlier work
M14 [34] = conditions: values obtained from NCI database; cited from earlier work
LOX IMVI [35] = conditions: values obtained from NCI database; cited from earlier work
CAKI-1 [36] = conditions: values obtained from NCI database; cited from earlier work
OVCAR-3 [37] = conditions: values obtained from NCI database; cited from earlier work
IGROV1 [38] = conditions: values obtained from NCI database; cited from earlier work
HOP-92 [39] = conditions: values obtained from NCI database; cited from earlier work
CCRF-CEM [40] = conditions: values obtained from NCI database; cited from earlier work
SW-620 [41] = conditions: values obtained from NCI database; cited from earlier work
MDA-MB-435 [42] = conditions: values obtained from NCI database; cited from earlier work
MCF7 [43] = conditions: values obtained from NCI database; cited from earlier work
K-562 [44] = conditions: values obtained from NCI database; cited from earlier work
TK-10 [45] = conditions: values obtained from NCI database; cited from earlier work
DU-145 [46] = conditions: values obtained from NCI database; cited from earlier work
MOLT-4 [47] = conditions: values obtained from NCI database; cited from earlier work
ACHN [48] = conditions: values obtained from NCI database; cited from earlier work
RPMI-8226 [49] = conditions: values obtained from NCI database; cited from earlier work
T-47D [50] = conditions: values obtained from NCI database; cited from earlier work
COLO 205 [51] = conditions: values obtained from NCI database; cited from earlier work
HL-60(TB) [52] = conditions: values obtained from NCI database; cited from earlier work
NCI-H522 [53] = conditions: values obtained from NCI database; cited from earlier work
RXF 393 [54] = conditions: values obtained from NCI database; cited from earlier work

## C=C1C(=O)O[C@H]2[C@H]1CC/C(COC(=O)NCCCn1ccnc1)=C\CC[C@@]1(C)O[C@@H]21 [6f, ((1aR,7aS,10aS,10bS,E)-1a-methyl-8-methylene-9-oxo-1a,2,3,6,7,7a,8,9,10a,10b-decahydrooxireno[2′,3′:9,10]cyclodeca[1,2-b]furan-5-yl)methyl-(3-(1H-imidazol-1-yl)-propyl)carbamate]
other
  melting point: 70 °C

## C=C1C(=O)O[C@H]2[C@H]1CC/C(COC(=O)NCc1ccccn1)=C\CC[C@@]1(C)O[C@@H]21 [JVM 74]
AML 052308 cells [1]
  cytotoxicity compared to MMB: almost equal cytotoxicity to MMB

## C=C1C(=O)O[C@H]2[C@H]1CC/C(COC(=O)CCN1CCCCC1)=C\CC[C@@]1(C)O[C@@H]21 [JVM 88]
[2]
  antileukemic activity compared to MMB: good antileukemic activity compared to MMB
[3]
  antileukemic activity compared to MMB: good antileukemic activity compared to MMB
M9 ENL cells
  antileukemic activity compared to MMB: good antileukemic activity compared to MMB

## C=C1C(=O)O[C@H]2[C@H]1CC/C(COC(=O)NCCCN1CCOCC1)=C\CC[C@@]1(C)O[C@@H]21 [6g, ((1aR,7aS,10aS,10bS,E)-1a-methyl-8-methylene-9-oxo-1a,2,3,6,7,7a,8,9,10a,10b-decahydrooxireno[2′,3′:9,10]-cyclodeca[1,2-b]furan-5-yl)methyl-(3-morpholinopropyl)carbamate]
other
  melting point: 60 °C

## C=C1C(=O)O[C@H]2[C@H]1CC/C(COC(=O)NCCCn1ccnc1)=C\CC[C@@]1(C)O[C@@H]21 [JVM 58]
AML 052308 cells [1]
  cytotoxicity compared to MMB: less active than MMB

## C=C1C(=O)OC2C1CC/C(CO)=C\CCC1(C)OC21 (centres unmarked) [MMB, Melampomagnolide B]
AML 052308 cells [4]
  CC50: 16000 nM

## C=C1C(=O)O[C@H]2[C@H]1CC/C(COC(=O)N1CCC(F)(F)CC1)=C\CC[C@@]1(C)O[C@@H]21 [6a, ((1aR,7aS,10aS,10bS,E)-1a-methyl-8-methylene-9-oxo-1a,2,3,6,7,7a,8,9,10a,10b-decahydrooxireno[2′,3′:9,10]cyclodeca[1,2-b]furan-5-yl)methyl-4,4-difluoropiperidine-1-carboxylate]
ACHN [5]
  GI50: 1790 nM
COLO 205 [6]
  GI50: 2060 nM
MOLT-4 [7]
  GI50: 2050 nM
SW-620 [8]
  GI50: 1460 nM
RXF 393 [9]
  GI50: 1200 nM
M14 [10]
  GI50: 2840 nM
TK-10 [11]
  GI50: 2600 nM
[12]; sub-panel breast cancer
  GI50: 570 to 3070 nM
[12]; sub-panel colon cancer
  GI50: 1120 to 2060 nM
[12]; sub-panel melanoma
  GI50: 460 to 2840 nM
[12]; sub-panel non-small cell lung cancer
  GI50: 650 to 1450 nM
[12]; sub-panel renal cancer
  GI50: 900 to 2600 nM
BT-549 [13]
  GI50: 2690 nM
MCF7 [14]
  GI50: 1620 nM
OVCAR-3 [15]
  GI50: 1690 nM
DU-145 [16]
  GI50: 2440 nM
HCT-116 [17]
  GI50: 1410 nM
other
  melting point: 150 °C
SF-539 [18]
  GI50: 1980 nM
RPMI-8226 [19]
  GI50: 1980 nM
CCRF-CEM [20]; 5-dose assay
  GI50: 680 nM
CCRF-CEM [20]; leukemia cell line CCRF-CEM
  GI50: 680 nM
CAKI-1 [21]
  GI50: 2030 nM
SR
  GI50: 1380 nM
MDA-MB-468
  GI50: 570 nM
[22]
  half-life: 8 h
MALME-3M
  GI50: 1900 nM
NCI-H522 [23]
  GI50: 1250 nM
T-47D [24]
  GI50: 3070 nM
SNB-75
  GI50: 6130 nM
LOX IMVI [25]
  GI50: 2230 nM
MDA-MB-435 [26]
  GI50: 460 nM
K-562 [27]
  GI50: 3450 nM
HL-60(TB) [28]
  GI50: 2040 nM
HOP-92 [29]
  GI50: 1450 nM
IGROV1 [30]
  GI50: 2310 nM

## C/C1=C\CC[C@@]2(C)O[C@@H]2[C@H]2OC(=O)[C@H](CN(C)C)[C@@H]2CC1 [DMAPT, dimethylaminoparthenolide]
HCT-116 [31]
  GI50: 5010 nM
BT-549 [32]
  GI50: 5010 nM
SF-539 [33]
  GI50: 2510 nM
M14 [34]
  GI50: 15800 nM
LOX IMVI [35]
  GI50: 10000 nM
CAKI-1 [36]
  GI50: 12500 nM
OVCAR-3 [37]
  GI50: 12500 nM
IGROV1 [38]
  GI50: 19900 nM
HOP-92 [39]
  GI50: 10000 nM
CCRF-CEM [40]
  GI50: 1990 nM
SW-620 [41]
  GI50: 3980 nM
MDA-MB-435 [42]
  GI50: 7940 nM
MCF7 [43]
  GI50: 5010 nM
K-562 [44]
  GI50: 2510 nM
TK-10 [45]
  GI50: 3160 nM
DU-145 [46]
  GI50: 5010 nM
MOLT-4 [47]
  GI50: 3160 nM
ACHN [48]
  GI50: 15800 nM
RPMI-8226 [49]
  GI50: 2510 nM
T-47D [50]
  GI50: 39800 nM
COLO 205 [51]
  GI50: 31600 nM
HL-60(TB) [52]
  GI50: 1580 nM
NCI-H522 [53]
  GI50: 2510 nM
RXF 393 [54]
  GI50: 15800 nM
